{"source": "patent US20240408053A1", "about": "“ENTERITIS-SUPPRESSING COMPOSITION” (KOBE GAKUIN EDUCATIONAL FOUNDATION, priority 2021, published 2024)", "assay_type_in_all_cases": "in vivo, mice", "key": {"MDA+HAE": {"tested_on": "MDA+HAE", "assay": "Lipid peroxide measurement (MDA+HAE) in colon tissue", "details": "group ES: 2.0% v/v ethanol diet + 2.5 mg sesaminol per day oral, 2 weeks; group E highest", "description": "Lipid peroxidation is used as an indicator of oxidative stress in cells and tissues; lipid peroxides produce MDA and HAE upon degradation. Therefore, the MDA+HAE level in colon tissue was examined as a marker of lipid peroxidation response.\nA colon tissue sample (100 mg) was homogenized in 1 mL of 20 mM phosphate buffered saline (pH of 7.4) with a homogenizer and centrifuged at 3,000× g at 4° C. for 10 minutes. The resulting precipitate was examined for malondialdehyde (MDA) and 4-hydroxyalkenals (HAE) using a lipid peroxide assay kit (Oxford Biomedical Research, Inc.)."}, "Nrf2": {"tested_on": "Nrf2", "assay": "Nrf2 activation level in colon tissue extracts by ELISA", "details": "group ES: 2.0% v/v ethanol diet + 2.5 mg sesaminol per day oral, 2 weeks; group E significantly reduced", "description": "The Nrf2 transcription factor is a master regulator of cytoprotection and promotes HO-1 gene expression in intracellular response to oxidative stress. Thus, in terms of the decrease in the HO-1 expression level in group E, the activation level of the Nrf2 transcription factor was examined. The protein amounts in the colon tissue extracts of the groups were adjusted to be equal, and Nrf2 activation levels in the colon tissue extracts were determined by ELISA."}, "ZO-1": {"tested_on": "ZO-1", "assay": "Immunofluorescence staining of ZO-1 in colon tissue, 4 weeks", "details": "group ES: 2.0% v/v ethanol diet + 2.5 mg sesaminol per day oral, group E significant decrease", "description": "Next, in order to verify the longer-term effect of oral administration of sesaminol on ethanol-induced intestinal tight junction (TJ) dysfunction and leaky gut, histological analysis of colonic epithelial TJ proteins (ZO-1, Occludin, and Claudin-1) and analysis of the plasma LPS level were performed using the mice in each group (groups C, S, E, and ES) described in Example 7. Histological analysis was performed by immunofluorescence staining with anti-ZO-1, anti-Occludin, and anti-Claudin-1 antibodies, followed by observation under a fluorescence microscope. The Plasma LPS level was measured according to the method described in Example 6."}, "LPS": {"tested_on": "LPS", "assay": "Plasma LPS level (LAL assay), 2 weeks", "details": "group ES: 2.0% v/v ethanol diet + 2.5 mg sesaminol per day oral, vs group E, higher than group C", "source_text": "(§1) Acetaldehyde, which accumulates during ethanol metabolism, is known to disrupt intestinal tight junctions (TJs) via dissociation of colonic epithelium TJ proteins (ZO-1, occludin, and claudin-1) from the cytoskeleton. […] Therefore, whether oral administration of sesaminol would affect ethanol-induced intestinal barrier dysfunction was examined by analyzing the expression levels of colonic epithelial TJ proteins and the plasma LPS level in the mice in the four groups (groups C, S, E, and ES).\nThe plasma LPS concentration was measured with a limulus amebocyte lysate (LAL) assay."}, "MCP-1": {"tested_on": "MCP-1", "assay": "MCP-1 expression in colon tissue (qRT-PCR, ELISA)", "details": "group ES: 2.0% v/v ethanol diet + 2.5 mg sesaminol per day oral, 2 weeks, vs group E; higher than group C", "source_text": "It has been reported that chronic consumption of an excessive amount of ethanol can induce inflammation associated with tumor formation in colon tissue. Therefore, in order to verify whether oral administration of sesaminol has a preventive effect on ethanol-induced colitis, the expression levels of inflammatory cytokines (TNF-α and IL-6) and chemokine (MCP-1) in the large intestinal lamina propria of the mice in the four groups (groups C, S, E, and ES) were examined by qRT-PCR and ELISA. The NF-κB activity in the mice in the four groups was also examined. NF-κB is a transcription factor that is involved in expression of genes regulating inflammation and is activated by exposure of immune cells to pro-inflammatory factors.\nTotal RNA was extracted from colon tissue samples. […]\nA colon tissue sample (100 mg) was homogenized in 1 mL of an M-PER mammalian protein extraction reagent (Pierce) containing a diluent of a protease inhibitor cocktail (Nacalai Tesque, Inc.), and the resulting homogenate was centrifuged at 20,000× g at 4° C. for 15 minutes. The protein concentration of the supernatant was measured with a protein assay reagent (Bio-Rad Laboratories, Inc.), and equal amounts of proteins were used for analysis of the expression levels of TNF-α, IL-6, and MCP-1 by ELISA."}, "occludin": {"tested_on": "occludin", "assay": "Western blotting of occludin in colon tissue", "details": "group ES: 2.0% v/v ethanol diet + 2.5 mg sesaminol per day oral, 2 weeks, vs group E; lower than group C", "source_text": "as §1\nWB was performed in the same manner as in Example 4 above. The following primary antibodies were used. • Anti-mouse zonula occludens-1 protein (ZO-1) rabbit polyclonal antibody • Anti-mouse occludin rabbit polyclonal antibody • Anti-mouse claudin-1 rabbit polyclonal antibody"}}, "note": "Entries after “also recorded” stand apart in the source; their conditions may differ."}
{"smiles": "Oc1cc2c(cc1C1OCC3C(c4ccc5c(c4)OCO5)OCC13)OCO2", "note": "(stereo not drawn) [Sesaminol]", "values": [{"measurement": "MDA+HAE level in colon tissue", "setting": "MDA+HAE", "value": "next highest value; also recorded: slightly higher than those of group C and group S"}, {"measurement": "Nrf2 activation level", "setting": "Nrf2", "value": "recovered to a level similar to that in group C"}, {"measurement": "protein level of ZO-1 in colon tissue (fluorescence microscope observation)", "setting": "ZO-1", "value": "improvement in all of those levels"}, {"measurement": "plasma LPS level", "setting": "LPS", "value": "significantly lower than that in group E"}, {"measurement": "expression level of MCP-1 (mRNA by qRT-PCR, protein by ELISA)", "setting": "MCP-1", "value": "significantly lower than those in group E"}, {"measurement": "expression level of occludin", "setting": "occludin", "value": "significantly higher than those in group E"}]}
